The record followed here is patent US9546179B2, “Heterocycle amido alkyloxy substituted quinazoline derivative and use thereof” (priority 2011, dated 2017).

Data set [1] concerns human lungs cancer cell strain A549. Kind of data set: Tumor inhibitory effect on nude mice bearing A549 tumors. In kind it is in vivo. The procedure: After digesting and detaching the monolayer-cultured human lungs cancer cell strain A549 (purchased from Shanghai FuMeng Gene Bio-technology Co., Ltd.), cells were collected and resuspended in the serum-free culture medium, and the concentration was adjusted to be 2×10^6/0.2 mL. 0.2 mL cell suspension was taken by injector and transplanted under the skin of square scapula behind left armpit of nude mice, 0.2 mL for each mouse. The tumor volume was measured every 2 or 3 days. The nude mice bearing tumors which rapidly grew without any diabrosis were selected after two weeks. Under the condition of asepsis, the tumors were removed, and cut into tumor tissue with the diameter of approximately 2-3 mm, and then inoculate the tissue under the skin of square scapula behind left armpit of nude mice by trocar. After repetition in three generations, the nude mice received administration randomly in groups excluding the ones bearing too large or too small tumors, when the tumor grew to be about 100 mm^3 in volume.
The selected animals were 6-week old BALB/C nude mice. The male mice were 20-22 g in weight and provided by Shanghai Laboratory Animal Center (SIPPR BK) (production permit No. SCXK (Hu) 2008-0016). The experimental period was totally 111 days.
The experiment was randomly divided into 2 groups, the negative control group consisting of 12 mice (solvent administration only) and treatment group consisting of 12 mice (compound C, 100 mg/kg).
Ethanol was used as cosolvent to promote dissolution of compound C, adding 0.5 w/v % carboxymethyl cellulose to form suspension with a 0.5% final concentration of carboxymethyl cellulose and a 10 w/v % final concentration of ethanol, and then, using ultrasound to form uniform suspension. The dosage for intragastric administration was 0.1 ml/10 g, and the negative control group was only subjected to the same solvent. On the first day of experiment, compound C was given 100 mg/kg in the morning and in the evening respectively, and afterwards, 100 mg/kg was given in every morning only. The negative control group was only given 0.1 ml/10 g of 10 v/v % ethanol 0.5 w/v % carboxymethyl cellulose in every morning.
Index: observing state of animals and measuring body weight daily; measuring tumors by calipers every two days. Sacrifice the animal in 24 hours after the last administration and measure the volume and size of tumor. Dissecting the animal and removing the tumor; weighing the tumor and nude mice; and then, drawing the curves of tumor volume and growth, nude mouse weight, tumor inhibition rate and animal death rate.
Tumor diameter measurement is used to observe the antitumor effect of the test substances dynamically. The formula for tumor volume (TV) calculation is: v=0.5×a×b^2(mm^3); wherein, a and b stand for length and width respectively.
The relative tumor volume (RTV) is calculated according to the measurement result; RTV=Vt/V0, wherein V0 is the tumor volume measured at the beginning of administration (i.e. d0) and Vt is the tumor volume at each measurement.
The index to evaluate antitumor activity is relative tumor proliferation rate T/C (%)
In the above formula, TRTV: RTV of treatment group, CRTV: RTV of negative control group.

For data set [2], the system named is Human lung cancer cells (A549). The experiment in a line: Anticancer effect in vitro on A549 cells (MTT, GI50). In kind it is cell-based. The conditions noted are these: A549, 72 hours. The procedure: The inhibitory effect on the cancer cells of the compounds prepared in Example 1-Example 13, Example 20, Example 48, Example 49 and Example 57 was determined in vitro using cancer cells. The results are shown in table 2, and the specific detection methods are as follows:
Human lung cancer cells were (A549, purchased from Shanghai FuMeng Gene Bio-technology Co., Ltd.) cultured in DMEM containing 2 m M/L-glutamine and 10% FBS, and inoculated in 96-well plate, 200 μL/well and 2000 cells per well; the plate was preincubated for 24 hours under the condition of 5% CO2 and 100% relative humidity at 37° C., allowing for cell adherence.
When the cells adhered, the supernatant was removed, and 200 μL drug-containing culture medium was added with different concentration of compounds into each well (in concentration of 20 μg/ml, 12.5 µg/ml, 6.25 μg/ml, […], 1.5625 μg/ml and 0.78125 μg/ml), 3 multiple wells were set up for each drug concentration as well as blank control (cell culture medium without cells), and drug-free control (with no drugs, filled with complete medium in equal amount only), cultured for 72 hours under the condition of 5% CO2 incubator at 37° C. (100% relative humidity).
After the culture ended, the supernatant was carefully removed, and adding 200 μl DMEM culture medium containing 3% FBS with 500 μg/ml MTT into each well, and culturing for 4 hours under the condition of 5% CO2 incubator at 37° C. (100% relative humidity). After the supernatant was discarded, 150 μL DMSO was added in each well for solving. the GI50 value was measured by detecting the absorbance in the 570 nm wavelength.

In data set [3] the target is T1, receptor tyrosine kinase EGFR (Homo sapiens, UniProt P00533).
T1 construct: purchased Shanghai 3bio Technology Co., Ltd. Lot No. 4018780925
The experiment in a line: Inhibitory effect on receptor tyrosine kinase EGFR (ELISA, Poly(Glu, Tyr)4:1, PY99 antibody). In kind it is biochemical. Conditions: ATP 4 μM, 1 hour at 37° C. An outline of the steps: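 Poly(Glu,Tyr)4:1-coated plates; kinase reaction with 4 μM ATP and compound at 1.0000–0.00024 μg/ml, run 1 h at 37 °C. Phosphotyrosine detected with PY99 and HRP anti-mouse IgG, OPD colour read at A492, and inhibition rate calculated.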

The mark [4] stands for this setting: A549 in nude mice, 100 mg/kg intragastric, 21st day after administration.

Marks after values point to notes of the source that are not given here.

T1 sequence (P00533 25-1210): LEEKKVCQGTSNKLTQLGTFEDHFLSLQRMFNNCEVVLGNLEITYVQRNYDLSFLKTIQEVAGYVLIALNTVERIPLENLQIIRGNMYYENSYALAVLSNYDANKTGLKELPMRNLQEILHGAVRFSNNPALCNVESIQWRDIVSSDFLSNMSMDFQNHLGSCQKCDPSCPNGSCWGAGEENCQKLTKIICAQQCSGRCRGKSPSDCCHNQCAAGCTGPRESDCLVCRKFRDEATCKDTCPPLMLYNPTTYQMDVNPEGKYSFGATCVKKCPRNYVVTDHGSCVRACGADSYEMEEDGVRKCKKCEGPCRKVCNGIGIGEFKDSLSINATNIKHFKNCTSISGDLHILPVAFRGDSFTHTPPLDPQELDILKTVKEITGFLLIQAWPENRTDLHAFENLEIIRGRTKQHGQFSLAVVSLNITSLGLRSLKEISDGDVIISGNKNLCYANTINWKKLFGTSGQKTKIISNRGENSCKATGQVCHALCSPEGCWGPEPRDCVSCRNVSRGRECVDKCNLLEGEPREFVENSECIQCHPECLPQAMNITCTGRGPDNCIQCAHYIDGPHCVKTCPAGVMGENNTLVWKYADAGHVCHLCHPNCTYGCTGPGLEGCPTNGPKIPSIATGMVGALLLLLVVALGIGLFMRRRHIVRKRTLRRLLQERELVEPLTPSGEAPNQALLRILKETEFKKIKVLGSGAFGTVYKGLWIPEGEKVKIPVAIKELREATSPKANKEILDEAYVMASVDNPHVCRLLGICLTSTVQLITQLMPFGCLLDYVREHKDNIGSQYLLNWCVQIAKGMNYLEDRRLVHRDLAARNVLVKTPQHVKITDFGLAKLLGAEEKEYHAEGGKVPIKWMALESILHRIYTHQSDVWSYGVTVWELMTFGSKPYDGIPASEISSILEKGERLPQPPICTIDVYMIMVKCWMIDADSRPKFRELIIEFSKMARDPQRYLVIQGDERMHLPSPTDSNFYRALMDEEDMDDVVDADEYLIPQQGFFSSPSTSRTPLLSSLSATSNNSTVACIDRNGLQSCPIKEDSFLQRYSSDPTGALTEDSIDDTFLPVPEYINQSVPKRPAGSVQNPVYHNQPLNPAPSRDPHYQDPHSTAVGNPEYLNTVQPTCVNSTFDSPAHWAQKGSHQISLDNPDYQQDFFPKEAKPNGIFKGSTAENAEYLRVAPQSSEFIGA

Regarding `COc1cc2ncnc(Nc3ccc(F)c(Cl)c3)c2cc1OCCCN1CCC2(COC2)C1` [Example 2, 4-(3′-chloro-4′-fluorophenylamino)-6-[3-(2-oxa-6-azaspiro[3.4]octane-6-yl)-propoxy]-7-methoxyquinazoline], the “body weight of the nude mice compared with the control group” value in data set [1] (100 mg/kg intragastric, FIG. 1) was “consistent fluctuation”. Also, in data set [1] (21st day after administration, 100 mg/kg, P<0.05), the “average tumor weight compared with the negative group” value was “less than the negative group”. In data set [1] (setting [4]), the Tumor mass amounted to 0.55 ± 0.43 g and the Tumor volume is reported as 515.4 ± 388.0** mm^3. This compound returned a Tumor inhibition rate in data set [1] (A549 in nude mice, 100 mg/kg intragastric, from tumor weight) of 47.62%. In data set [1] (A549 in nude mice, 100 mg/kg intragastric, relative tumor proliferation rate), the T/C % was determined as 43.44%. Further, the RTV in data set [1] (A549 in nude mice, 100 mg/kg intragastric, relative tumor volume Vt/V0) is reported as 4.57 ± 2.11. The “tumor volume and size compared with the control group” value in data set [1] (two weeks after administration, 100 mg/kg, p<0.05, FIG. 2) was “significantly less than the control group”. In addition, in data set [2], the GI50 (in general, the concentration giving 50% growth inhibition) worked out at 20.4 µM.

With `COc1cc2ncnc(Nc3ccc(F)c(Cl)c3)c2cc1OCCCN1CCC2(CCOCC2)C1` [Example 9, 4-(3′-chloro-4′-fluorophenylamino)-6-[3-(8-oxa-2-azaspiro[4.5]decane-2-yl)-propoxy]-7-methoxyquinazoline], in data set [3], the IC50 (commonly the concentration needed to halve the response being measured) is 0.01 to 0.1 µM. Further, the GI50 in data set [2] came to 24.3 µM.

`COc1cc2ncnc(Nc3cc(Cl)ccc3F)c2cc1OCCCN1CC[C@H]2OCC[C@H]21` (relative stereo) [Example 20, 4-(5′-chloro-2′-fluorophenylamino)-6-[3-(cis-hexahydrofuro[3,2-b]pyrrole-4-yl)-propoxy]-7-methoxyquinazoline] gave an IC50 in data set [3] of 0.01 to 0.1 µM. This compound registered a GI50 in data set [2] of 59.5 µM.

`COc1cc2ncnc(Nc3ccc(F)c(Cl)c3)c2cc1OCCN1CC2CCC(C1)O2` [Example 11, 4-(3′-chloro-4′-fluorophenylamino)-6-[2-(8-oxa-3-azabicyclo[3.2.1]octane-3-yl)-oxethyl]-7-methoxyquinazoline]: the IC50 in data set [3] was in the range of 0.1 to 1 µM. Also, it took 26.6 µM to inhibit growth in data set [2] by half (GI50).

On to `COc1cc2ncnc(Nc3ccc(F)c(Cl)c3)c2cc1OCCCN1CCC2(CC1)COC2` [Example 5, 4-(3′-chloro-4′-fluorophenylamino)-6-[3-(2-oxa-7-azaspiro[3.5]nonane-7-yl)-propoxy]-7-methoxyquinazoline], for which the IC50 in data set [3] fell in the range of 0.01 to 0.1 µM. Also, in data set [2], the concentration for 50% growth inhibition (GI50) was determined as 8.6 µM.

As for `COc1cc2ncnc(Nc3ccc(F)c(Cl)c3)c2cc1OCCN1C2CCC1COC2` [Example 13, 4-(3′-chloro-4′-fluorophenylamino)-6-[2-(3-oxa-8-azabicyclo[3.2.1]octane-8-yl)-oxethyl]-7-methoxyquinazoline], the concentration for half-maximal inhibition (IC50) in data set [3] fell in the range of 0.01 to 0.1 µM. In addition, growth in data set [2] was halved (GI50) at 28.8 µM.

`C#Cc1cccc(Nc2ncnc3cc(OC)c(OCCCN4CC5(CNC(=O)O5)C4)cc23)c1` [Example 48]: the IC50 in data set [3] lay within 0.0001 to 0.01 µM. This compound showed a GI50 in data set [2] of 17.8 µM.

Take `COc1cc2ncnc(Nc3ccc(F)c(Cl)c3)c2cc1OCCN1CCC2(CCOCC2)C1` [Example 10, 4-(3′-chloro-4′-fluorophenylamino)-6-[2-(8-oxa-2-azaspiro[4.5]decane-2-yl)-oxethyl]-7-methoxyquinazoline]: the IC50 in data set [3] was 0.01 to 0.1 µM. Moreover, in data set [2], the GI50 stood at 35.2 µM.

With `COc1cc2ncnc(Nc3ccc(F)c(Cl)c3)c2cc1OCCCN1CC2(CCOCC2)C1` [Example 4, 4-(3′-chloro-4′-fluorophenylamino)-6-[3-(7-oxa-2-azaspiro[3.5]nonane-2-yl)-propoxy]-7-methoxyquinazoline], in data set [3], the IC50 fell in the range of 0.01 to 0.1 µM. This compound also came in with a GI50 in data set [2] of 8.5 µM.

For the compound `C#Cc1cccc(Nc2ncnc3cc(OC)c(OCCCN4CC5(C4)CN(C)C(=O)O5)cc23)c1` [Example 49], the IC50 in data set [3] is 0.0001 to 0.01 µM. This compound returned a GI50 in data set [2] of 21 µM.
